Measurements published in patent US5017574A, “Novel imidazobenzodiazepines” (Roussel Uclaf, priority 1989, dated 1991).

Experiments:
benzodiazepine receptors [1] = assay: In vivo binding to benzodiazepine receptors (Test 2); conditions: ip
Protocol: Measurement of in vivo binding to benzodiazepine receptors was carried out according to the method described by Goeders at al., Life Sciences (1985) Vol. 37, p. 345.

benzodiazepine receptors [2] = assay: Affinity for benzodiazepine receptors: inhibition of specific 3H-flunitrazepam binding (Test 1); conditions: 0.6×10^-9 mol 3H-flunitrazepam; membranes from the rear portion of the rat brain; read-out: Test 1: concentration which inhibited 50% of the specific binding of 3H-labelled flunitrazepam (IC50)
Protocol: The affinity of the active ingredients for the benzodiazepine receptors was measured using a radioactively labelled (^3 H) compound, flunitrazepam, in a modified version of the method of Squires et al (Nature, 1977, Vol. 266, p. 732). The values given in Table 2 below are the concentration (mol×10^-9) of the test compound which inhibited 50% of the specific binding of 0.6×10^-9 mol of ^3 H-labelled flunitrazepam in preparation of membranes from the rear portion of the brain in rats (IC50 values).

Row | SMILES | Test 2: ED50, in vivo binding to benzodiazepine receptors (benzodiazepine receptors [1]) [mg/kg] | IC50 (benzodiazepine receptors [2]) [nM]
1 | CN1Cc2c(C3OCCO3)ncn2-c2ccccc2C1=O [Example 1, 5,6-dihydro-3-(1,3-dioxolan-2-yl)-5-methyl-imidazo[1,5-a][1,4]benzodiazepine-6(4H)-one] | 1.0 | 1080
2 | CN1Cc2c(C3SCCS3)ncn2-c2ccccc2C1=O [Example 2, 5,6-dihydro-3-(1,3-dithiolan-2-yl)-5-methyl-imidazo[1,5-a][1,4]benzodiazepine-6(4H)-one] | 7.0 | 94
3 | CN1Cc2c(C3OCCO3)ncn2-c2cccc(C(F)(F)F)c2C1=O [Example 3, 5,6-dihydro-3-(1,3-dioxolan-2-yl)-5-methyl-7-trifluoromethyl-imidazo[1,5-a][1,4]benzodiazepine-6(4H)-one] | 0.09 | 73
4 | CN1Cc2c(C3OCCS3)ncn2-c2cccc(C(F)(F)F)c2C1=O (stereo not drawn) [Example 4, 5,6-dihydro-5-methyl-3-(1,3-oxathiolan-2-yl)-7-trifluoromethyl-imidazo[1,5-a][1,4]benzodiazepine-6(4H)-one] | 0.08 | 10
5 | CN1Cc2c(C3OCCS3)ncn2-c2ccccc2C1=O (stereo not drawn) [Example 5, 5,6-dihydro-5-methyl-3-(1,3-oxathiolan-2-yl)-imidazo[1,5-a][1,4]benzodiazepine-6(4H)-one] | 0.8 | 339
6 | CN1Cc2c(C3OCCS3)ncn2-c2cccc(F)c2C1=O (stereo not drawn) [Example 6, 5,6-dihydro-7-fluoro-5-methyl-3-(1,3-oxathiolan-2-yl)-imidazo[1,5-a][1,4]benzodiazepine-6(4H)-one] | 0.22 | 36
